One test deals with VCAM-1. Briefly: VCAM-1 Assay: TNF-stimulated cells, cell-surface ELISA. The test is classed as cell-based. The settings on record: for IC50: bare number = IC50, NE not defined in the patent, read-out: VCAM-1 IC50 or % inhibition at [μM]: IC50; for VCAM-1 % inhibition at [μM]: at 50 μM. Here is the method:
Two to four confluent P150 plates are trypsinized and the cells transferred to a 50 mL conical centrifuge tube. The cells are pelleted, resuspended, and counted using the trypan blue exclusion method.
Cells are resuspended at a concentration of 36,000 cells/mL and 1 mL is aliquoted per well.
Cells are split into 24 well tissue culture plates. The cells in each well should be approximately 90-95% confluent by the following day. Cells should not be older than passage 8.
Compounds are initially screened at 50 μM and 10 μM. A 50 mM stock solution for each compound is prepared in culture medium. The stock solution is diluted to 5 mM and 1 mM. When 10 μL of the 5 mM solution is added to the well (1 mL medium/well), the final concentration will be 50 μM. Adding 10 μL of the 1 mM solution to the well will give a final concentration of 10 μM.
Compounds which will not go into solution in culture medium are resuspended in DMSO at a concentration of 25 mM. The stock solution is then diluted to the final concentration in culture medium. The old medium is aspirated and 1 mL of the new medium with the compound is added. For example, if the final concentration is 50 μM, the 2 μL of the 25 mM stock is added per mL of culture medium. The […] solution is diluted for lower concentrations.
The compounds are added to the plate (each compound is done in duplicate). One plate is done for VCAM expression and one plate is done for ICAM expression.
Immediately after the compounds are added, TNF is added to each well. 100 units/mL TNF is usually added to each well. Since each lot of TNF varies in the number of units, each new lot is titrated to determine the optimum concentration. Therefore this concentration will change. If 100 units/mL is bing used, dilute the TNF to 10 units/μL and add 10 μL to each well.
The plates are incubated at 37° C., 5% CO2 overnight (approximately 16 hours). The next day the plates are checked under the microscope to see if there are any visual signs of toxicity. Records are made of any cell death, debris, or morphology changes, as well as insoluble compounds (particulate or turbity).
In order to assess MCP-1, the media (500 μL) is saved and frozen at −70° C. Wash cells once with roughly 1 ml/well of Hanks Balance Salt Solution (HBSS) or PBS. Gently empty the wash solution and then tap the plate onto paper towels. Add either 250 μL/well of HBSS +5% FCCS to the plank (no primary antibody wells) or 250 μL/well of primary antibody diluted in HBSS +5% FCS. Incubate for 30 minutes at 37° C. Wash the wells twice with 0.5 mL/well HBSS or PBS and gently tap the plates onto paper towels after the last wash. Add 250 μL/well of HRP-conjugated second antibody diluted in HBSS +5% FCS to every well including the blank wells (no primary antibody). Incubate at 37° C. for 30 minutes. Wash the wells four times with 0.5 mL/well HBSS or PBS and gently tap the plates onto paper towels after the last wash. Add 250 μL/well of substrate solution. Incubate at room temperature in the dark until there is adequate color development (blue). Note the length of time incubation was performed (typically 15-30 minutes). Add 75 μL/well stopper solution (8N sulfuric acid), and read A450 nm.
(An ELISA detects its analyte on a solid surface through an enzyme-linked reagent.)

For a further test, the system named is ApoB/HepG2. Briefly: Lipid Screen & IC50 Determination Protocol: ApoB ELISA of HEPG2 media. The test is classed as cell-based, human. The settings on record: HEPG2, 24 hours; for IC50: bare number = IC50, NE not defined in the patent, read-out: ApoB/HepG2 IC50 or % inhibition at [μM]: IC50; for ApoB/HepG2 % inhibition at [μM]: at 15 μM. Here is the method:
HEPG2 cell was started in 10 ml of MEM, 10% FBS, 1 mM Sodium Pyruvate. The cells were incubated in a tissue culture incubator. The cells were split into 4×96-wells plate in MEM, 10% FBS, 1 mM Sodium Pyruvate and allowed to grow to about 50% confluency and then removed.
The cells were treated with the desired concentration of compounds in 100 μl DMEM, 1% RSA for 24 hours. The compounds are dissolved in DMSO.
On the same day, 4×96-wells NuncImmunoSorb plate is coated with 100 μl of mouse anti-human ApoB monoclonal 1D1 (1:1000 dilution in 1×PBS, pH 7.4). The coating is allowed overnight.
The coated plate is washed 3 times with 1×PBS, pH 7.4, −0.05% Tween 20. 100 μl of the standards is added to the selected wells. ApoB standards are prepared at 6.25, 3.12, 1.56, 0.78, 0.39 ng, and each concentration is done in triplicates. For samples:
90 μl of 1×PBS, pH 7.4, −0.05% Tween 20 is added to each well corresponding to the sample. 10 μl of media is transferred from the treated HEPG2 plates to the ApoB ELISA plate. The plate is incubated at room temperature for 2 hours, rocking gently.
Wash the coated plate 3× with 1×PBS, pH 7.4, −0.05% Tween 20. Add 100 μl of sheep anti-human ApoB polyclonal from Boehringer Mannheim. (1:2000 dilution in 1×PBS, pH 7.4, −0.05% Tween 20) from Boehringer Mannheim. Incubate at room temperature for 1 hour, rocking gently. Wash the coated plate 3× with 1×PBS, pH 7.4, −0.05% Tween 20. Add 100 μl of rabbit anti-sheep IgG (1:2000 dilution in 1×PBS, pH 7.4, −0.05% Tween 20). Incubate at room temperature for 1 hour, rocking gently. Wash the coated plate 3× with 1×PBS, pH 7.4, −0.05% Tween 20. Add 100 μl of substrate (10 ml of distilled water, 100 μl of TMB (10 mg/ml), and 1 μl of hydrogen peroxide). Allow color to emerge and stop reaction with 25 ul of 8N sulfuric acid. Wells are read with MicroPlate Reader @ […]. Graph accumulation of ApoB in media as a percentage of control for each sample and their concentration. A determination of IC50 is obtained from the graph.
The degree of inhibition of the compounds of formulas (I) and (II) was determined by the assays described in Examples 62-64.

One may read the inhibition as how much of the control response was suppressed. A lower inhibition goes with a weak effect.

`CC(C)(C)c1cc(SCc2ccc(F)cc2)cc(C(C)(C)C)c1O` [2,6-di-tert-butyl-4-thio(4′-fluorobenzyl)phenol]: the IC50 in the test on VCAM-1 is 35 µM; in the test with ApoB/HepG2 it was 30 µM. With `CC(=O)Oc1ccc(CSc2cc(C(C)(C)C)c(O)c(C(C)(C)C)c2)cc1` [2,6-di-tert-butyl-4-thio(4′-acetoxybenzyl)phenol], the IC50 in the test with VCAM-1 was 18 µM; in the test on ApoB/HepG2, 40 µM. With `CC(C)(Sc1cc(C(C)(C)C)c(O)c(C(C)(C)C)c1)Sc1cc(C(C)(C)C)c(OCC2OC2CO)c(C(C)(C)C)c1` (centres unmarked) [Oxiranemethanol, 3-[[4-[[1-[[3,5-bis(1,1-dimethylethyl)-4-hydroxyphenyl]thio]-1-methylethyl]thio]-2,6-bis(1,1-dimethylethyl)phenoxy]methyl]-], the IC50 in the test with VCAM-1 was > 100 µM. On to `CC(C)(C)c1cc(SCc2ccc(CC(=O)O)cc2)cc(C(C)(C)C)c1O` [2,6-di-tert-butyl-4-thio(4′(methyl)phenylacetic acid))phenol], for which the IC50 in the test with VCAM-1 is 80 µM. Besides, the “ApoB/HepG2 % inhibition at [μM]” value with ApoB/HepG2 is given as 7% at 15. Turning to `CC(C)(C)c1cc(SCc2ccc(C(=O)O)o2)cc(C(C)(C)C)c1O` [2,6-di-tert-butyn4-thio((2′-furancarboxylic acid)-5-methyl)phenol], in the test on VCAM-1, the IC50 was 40 µM.

For the compound `CN(C)CCCSc1cc(C(C)(C)C)c(O)c(C(C)(C)C)c1` [2,6-di-tert-butyl-4-thio(3′-(dimethylamino)propyl))phenol], the “VCAM-1 % inhibition at [μM]” value in the test with VCAM-1 came to 30% at 50.

On to `CC(C)(C)c1cc(SCc2ccc(CCO)cc2)cc(C(C)(C)C)c1O` [2,6-di-tert-butyl-4-thio(4′-(methyl)phenylethyl alcohol))phenol], for which the IC50 in the test on VCAM-1 was 15 µM. Moreover, the “ApoB/HepG2 % inhibition at [μM]” value in the test with ApoB/HepG2 came to 53% at 15.

Turning to `CC(C)(C)c1cc(SCc2ccc([N+](=O)[O-])cc2)cc(C(C)(C)C)c1O` [2,6-di-tert-butyl4-thio(4′-nitrobenzyl)phenol], the IC50 with VCAM-1 was 10 µM; in the test with ApoB/HepG2 it was 27 µM. In the case of `CC(C)(C)c1cc(SCCCS(=O)(=O)O)cc(C(C)(C)C)c1O` [2,6-di-tert-butyl-4-thio(3′-propanesulfonic acid)phenol], the “VCAM-1 % inhibition at [μM]” value in the test with VCAM-1 was found to be 25% at 50. On to “2,6-di-tert-butyl-4-thio(3′,5′-ditert-butyl,4′-hydroxy butanedioic acid ester)phenol”, for which the IC50 in the test on VCAM-1 came out at 6 µM. On the same count and under the same terms, the result for “Oxiranemethanol, α-[[[3-[[4-[[1-[[3,5-bis(1,1-dimethylethyl)-4-hydroxyphenyl]thio]-1-methylethyl]thio]-2,6-bis(1,1-dimethylethyl)phenoxy]methyl]oxiranyl]methoxy]methyl]-” reads 60 µM; that for `CC(=O)OC(C)(C)CSc1cc(C(C)(C)C)c(O)c(C(C)(C)C)c1` [2,6-di-tert-butyl-4-thio(2′-acetoxy,2′-methylpropyl)phenol], 50 µM; that for `CC(C)(Sc1cc(C(C)(C)C)c(O)c(C(C)(C)C)c1)Sc1cc(C(C)(C)C)c(OCC(O)C2CO2)c(C(C)(C)C)c1` (stereo not drawn) [Oxiranemethanol, α-[[4-[[1-[[3,5-bis(1,1-dimethylethyl)-4-hydroxyphenyl]thio]-1-methylethyl]thio]-2,6-bis(1,1-dimethylethyl)phenoxy]methyl]-], 45 µM.

With `CC(C)(C)c1cc(SCCc2ccc([N+](=O)[O-])cc2)cc(C(C)(C)C)c1O` [2,6-di-tert-butyl-4-thio(4′-nitrophenethyl)phenol], the IC50 in the test with VCAM-1 is 15 µM. For the compound `CC(C)(Sc1cc(C(C)(C)C)c(O)c(C(C)(C)C)c1)Sc1cc(C(C)(C)C)c(OC(=O)CN)c(C(C)(C)C)c1` [Glycine, 4-[[1-[[3,5-bis(1,1-dimethylethyl)-4-hydroxyphenyl]thio]-1-methylethyl]thio]-2,6-bis(1,1-dimethylethyl)phenyl ester], at 5 µM the inhibition with ApoB/HepG2 (Homo sapiens, at 5 μM) was 30%. Take `COc1c(C(C)(C)C)cc(SC(C)(C)Sc2cc(C(C)(C)C)c(OC(=O)CCC(=O)O)c(C(C)(C)C)c2)cc1C(C)(C)C` [Butanedioic acid, mono[4-[[1-[[3,5-bis(1,1-dimethylethyl)-4-methoxyphenyl]thiol]1-methylethyl]thiol-2,6-bis(1,1-dimethylethyl)phenyl] ester]: the “ApoB/HepG2 % inhibition at [μM]” value with ApoB/HepG2 came out at 89% at 15. For `CC(C)(Sc1cc(C(C)(C)C)c(O)c(C(C)(C)C)c1)Sc1cc(C(C)(C)C)c(OC(=O)CCCO)c(C(C)(C)C)c1` [Butanoic acid, 4-hydorxy-, 4-[[1-[[3,5-bis(1,1-dimethylethyl)-4-hydroxyphenyl]thio]-1-methylethyl]thio]-2,6-bis(1,1-dimethylethyl)phenyl ester], the “ApoB/HepG2 % inhibition at [μM]” value in the test on ApoB/HepG2 is reported as 81% at 15. Take `COc1c(C(C)(C)C)cc(SCc2ccc(C(F)(F)F)cc2)cc1C(C)(C)C` [2,6-di-tert-butyl-1-methoxy-4-thio(4′-trifluoromethyl)benzyl)benzene]: in the test on ApoB/HepG2, the IC50 was < 10 µM. For `CC1(C)OC2OC(COc3c(C(C)(C)C)cc(SC(C)(C)Sc4cc(C(C)(C)C)c(O)c(C(C)(C)C)c4)cc3C(C)(C)C)C3OC(C)(C)OC3C2O1` [α-D-Galactopyranose, 60-[4-[[1-[[3,5-bis(1,1-dimethylethyl)-4-hydroxyphenyl]thio]-1-methylethyl]thio]-2,6-bis(1,1-dimethylethyl)phenyl]-1,2:3,4-bis-O-(1-methylethylidene)], in the test with VCAM-1, the IC50 turned out to be 45 µM. Regarding `CC(C)(C)c1cc(SCCCC(=O)O)cc(C(C)(C)C)c1O` [2,6-di-tert-butyl-4-thio(butanoic acid)phenol], the IC50 in the test with VCAM-1 came out at 75 µM. Turning to `CC(C)(Sc1cc(C(C)(C)C)c(O)c(C(C)(C)C)c1)Sc1cc(C(C)(C)C)c(OC(=O)CCC(=O)O)c(C(C)(C)C)c1.N=C(N)NCCC[C@H](N)C(=O)O` [L-Arginine, mono[4-[[1-[[3,5-bis(1,1-dimethylethyl)-4-hydroxyphenyl]thio]-1-methylethyl]thio]-2,6-bis(1,1-dimethylethyl)phenyl butanedioate]], the “ApoB/HepG2 % inhibition at [μM]” value in the test on ApoB/HepG2 is reported as 93% at 15.

Values taken from US6602914B2, “Compounds and methods for the inhibition of the expression of VCAM-1” (AtheroGenics, Inc., priority 1997, dated 2003).
